Measurements taken from ChEMBL document CHEMBL5696442, “Discovery of type II inhibitors of TGFβ-activated kinase 1 (TAK1) and mitogen-activated protein kinase kinase kinase kinase 2 (MAP4K2)” (J Med Chem, 2015).
Calls of active or inactive are those of the source. The calls are words filed in the database; no cut-off is given here.

What was measured:
[1] = molecular target: Ephrin type-A receptor 7 (Homo sapiens) (UniProt Q15375); test: Inhibition of EPHA7 (unknown origin) at 10 uM by Ambit Kinomescan binding assay
Chain of Ephrin type-A receptor 7 (Homo sapiens) (Q15375 28-998 limits assumed): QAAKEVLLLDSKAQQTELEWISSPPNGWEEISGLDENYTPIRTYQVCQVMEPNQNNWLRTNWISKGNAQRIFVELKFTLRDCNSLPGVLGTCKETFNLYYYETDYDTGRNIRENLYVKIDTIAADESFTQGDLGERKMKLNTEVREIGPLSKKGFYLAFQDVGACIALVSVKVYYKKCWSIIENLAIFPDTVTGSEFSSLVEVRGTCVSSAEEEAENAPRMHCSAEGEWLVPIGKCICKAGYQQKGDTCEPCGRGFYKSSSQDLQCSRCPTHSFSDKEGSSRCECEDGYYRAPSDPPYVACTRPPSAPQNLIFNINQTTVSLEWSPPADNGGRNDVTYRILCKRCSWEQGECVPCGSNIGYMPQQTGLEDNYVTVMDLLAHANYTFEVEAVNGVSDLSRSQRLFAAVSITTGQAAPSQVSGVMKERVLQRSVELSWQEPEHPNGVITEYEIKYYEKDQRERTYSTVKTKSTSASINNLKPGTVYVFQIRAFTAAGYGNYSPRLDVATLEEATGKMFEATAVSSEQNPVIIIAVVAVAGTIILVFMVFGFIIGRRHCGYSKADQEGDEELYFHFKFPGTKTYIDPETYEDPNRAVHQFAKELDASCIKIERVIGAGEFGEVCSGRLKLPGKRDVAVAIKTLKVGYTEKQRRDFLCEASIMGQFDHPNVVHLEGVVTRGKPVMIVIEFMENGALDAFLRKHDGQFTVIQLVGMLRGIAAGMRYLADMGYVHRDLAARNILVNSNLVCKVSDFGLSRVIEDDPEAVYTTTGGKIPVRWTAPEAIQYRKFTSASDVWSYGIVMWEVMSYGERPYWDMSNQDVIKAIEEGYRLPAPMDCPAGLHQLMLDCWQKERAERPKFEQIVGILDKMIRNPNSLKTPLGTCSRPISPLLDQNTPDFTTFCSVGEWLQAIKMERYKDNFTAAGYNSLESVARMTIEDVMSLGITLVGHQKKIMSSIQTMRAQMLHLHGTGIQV

[2] = molecular target: T1, Mitogen-activated protein kinase kinase kinase 5 (Homo sapiens) (UniProt Q99683); test: Inhibition of MAP3K5 Lys1 labeling site harbouring IAIKEIPERDSR in human A-375 cells at 5 uM by KiNativ Profiling analysis relative to control; type: cell-based
T1 sequence (whole entry): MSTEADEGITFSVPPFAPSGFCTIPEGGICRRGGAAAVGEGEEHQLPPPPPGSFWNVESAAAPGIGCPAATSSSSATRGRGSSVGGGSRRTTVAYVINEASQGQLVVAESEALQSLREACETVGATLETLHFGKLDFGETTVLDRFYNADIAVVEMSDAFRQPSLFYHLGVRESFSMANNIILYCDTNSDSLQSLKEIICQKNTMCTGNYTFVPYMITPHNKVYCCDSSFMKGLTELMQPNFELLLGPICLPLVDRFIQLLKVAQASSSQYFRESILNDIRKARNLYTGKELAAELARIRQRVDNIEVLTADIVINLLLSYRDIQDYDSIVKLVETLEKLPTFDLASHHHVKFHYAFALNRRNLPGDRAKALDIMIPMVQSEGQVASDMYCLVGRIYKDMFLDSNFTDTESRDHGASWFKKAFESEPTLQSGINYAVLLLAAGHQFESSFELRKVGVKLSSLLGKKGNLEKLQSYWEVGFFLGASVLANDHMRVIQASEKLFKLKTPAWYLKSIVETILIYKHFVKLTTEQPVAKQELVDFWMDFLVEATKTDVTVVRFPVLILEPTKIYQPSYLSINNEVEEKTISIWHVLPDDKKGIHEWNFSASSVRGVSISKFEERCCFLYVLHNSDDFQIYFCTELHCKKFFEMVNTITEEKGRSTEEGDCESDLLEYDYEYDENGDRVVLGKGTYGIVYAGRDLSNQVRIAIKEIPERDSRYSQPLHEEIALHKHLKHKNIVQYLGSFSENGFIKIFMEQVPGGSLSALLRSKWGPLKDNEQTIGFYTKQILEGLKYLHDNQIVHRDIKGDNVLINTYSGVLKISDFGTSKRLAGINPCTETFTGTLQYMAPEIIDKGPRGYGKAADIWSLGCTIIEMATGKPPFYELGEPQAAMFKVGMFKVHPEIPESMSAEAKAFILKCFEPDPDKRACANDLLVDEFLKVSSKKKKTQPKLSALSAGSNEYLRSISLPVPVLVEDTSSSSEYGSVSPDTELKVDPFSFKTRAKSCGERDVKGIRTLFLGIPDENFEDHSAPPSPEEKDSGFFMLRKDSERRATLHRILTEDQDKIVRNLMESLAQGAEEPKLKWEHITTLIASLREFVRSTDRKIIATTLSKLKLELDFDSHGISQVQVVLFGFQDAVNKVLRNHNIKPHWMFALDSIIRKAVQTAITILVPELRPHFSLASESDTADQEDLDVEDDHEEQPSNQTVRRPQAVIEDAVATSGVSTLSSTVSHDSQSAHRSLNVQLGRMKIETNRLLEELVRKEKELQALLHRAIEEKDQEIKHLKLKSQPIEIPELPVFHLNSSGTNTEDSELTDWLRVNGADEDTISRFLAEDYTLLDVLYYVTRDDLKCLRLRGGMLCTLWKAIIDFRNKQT

[3] = molecular target: Serine/threonine-protein kinase 25 (Homo sapiens) (UniProt O00506); test: Inhibition of YSK1 ATP labeling site in human Huh-7 cells at 10 uM by KiNativ Profiling analysis relative to control; type: cell-based
Chain of Serine/threonine-protein kinase 25 (Homo sapiens) (O00506 whole entry, looked up): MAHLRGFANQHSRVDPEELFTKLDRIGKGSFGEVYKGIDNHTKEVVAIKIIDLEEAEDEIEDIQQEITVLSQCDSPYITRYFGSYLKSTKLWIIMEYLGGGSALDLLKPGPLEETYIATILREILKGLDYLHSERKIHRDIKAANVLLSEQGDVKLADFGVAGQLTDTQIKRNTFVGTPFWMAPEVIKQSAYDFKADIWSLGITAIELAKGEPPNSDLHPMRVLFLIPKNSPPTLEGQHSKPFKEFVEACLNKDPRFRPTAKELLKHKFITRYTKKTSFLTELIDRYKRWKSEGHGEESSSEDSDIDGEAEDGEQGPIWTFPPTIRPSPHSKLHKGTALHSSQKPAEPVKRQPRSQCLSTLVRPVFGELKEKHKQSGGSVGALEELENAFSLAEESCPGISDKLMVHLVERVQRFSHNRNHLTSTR

[4] = molecular target: Tyrosine-protein kinase Lyn (Homo sapiens, UniProt P07948); test: Inhibition of LYN (unknown origin) at 10 uM by Ambit Kinomescan binding assay relative to control; values are per cent of control
Chain of Tyrosine-protein kinase Lyn (P07948 2-512 limits assumed): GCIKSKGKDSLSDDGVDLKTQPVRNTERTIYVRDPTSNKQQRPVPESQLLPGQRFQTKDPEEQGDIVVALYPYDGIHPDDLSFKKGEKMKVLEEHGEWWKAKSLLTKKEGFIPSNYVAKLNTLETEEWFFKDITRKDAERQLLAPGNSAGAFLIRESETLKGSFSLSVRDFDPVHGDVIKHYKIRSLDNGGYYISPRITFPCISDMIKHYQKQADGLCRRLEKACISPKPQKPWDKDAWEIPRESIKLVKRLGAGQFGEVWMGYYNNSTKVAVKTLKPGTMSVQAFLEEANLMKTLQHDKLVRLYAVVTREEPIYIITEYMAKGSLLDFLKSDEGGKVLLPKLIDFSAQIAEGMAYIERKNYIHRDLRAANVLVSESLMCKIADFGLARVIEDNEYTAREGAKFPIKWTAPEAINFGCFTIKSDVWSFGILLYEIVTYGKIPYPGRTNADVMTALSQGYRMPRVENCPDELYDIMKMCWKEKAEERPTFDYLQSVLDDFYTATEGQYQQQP

[5] = molecular target: Calcium/calmodulin-dependent protein kinase type II subunit gamma (Homo sapiens) (UniProt Q13555); test: Inhibition of CaMK2g Lys1 labeling site harbouring KTSTQEYAAKIINTK in human Huh-7 cells at 1 uM by KiNativ Profiling analysis relative to control; type: cell-based
Chain of Calcium/calmodulin-dependent protein kinase type II subunit gamma (Homo sapiens) (Q13555 whole entry, canonical isoform): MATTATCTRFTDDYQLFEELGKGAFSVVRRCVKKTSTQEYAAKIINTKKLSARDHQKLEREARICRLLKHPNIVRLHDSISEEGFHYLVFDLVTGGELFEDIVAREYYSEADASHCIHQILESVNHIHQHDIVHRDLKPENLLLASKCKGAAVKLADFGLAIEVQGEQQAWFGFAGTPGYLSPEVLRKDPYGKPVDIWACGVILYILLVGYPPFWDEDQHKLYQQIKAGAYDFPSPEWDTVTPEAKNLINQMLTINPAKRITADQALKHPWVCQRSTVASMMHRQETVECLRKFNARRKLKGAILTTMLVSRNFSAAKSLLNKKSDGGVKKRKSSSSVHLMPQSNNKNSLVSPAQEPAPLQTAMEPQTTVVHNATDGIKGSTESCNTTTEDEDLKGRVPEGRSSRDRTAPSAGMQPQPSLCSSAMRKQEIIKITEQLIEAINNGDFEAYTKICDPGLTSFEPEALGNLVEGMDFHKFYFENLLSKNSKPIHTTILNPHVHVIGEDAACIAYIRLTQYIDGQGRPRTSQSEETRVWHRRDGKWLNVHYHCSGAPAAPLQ

[6] = molecular target: Casein kinase I isoform alpha (Homo sapiens) (UniProt P48729); test: Inhibition of CK1a Lys2 labeling site in human Huh-7 cells at 1 uM by KiNativ Profiling analysis relative to control; type: cell-based
Chain of Casein kinase I isoform alpha (Homo sapiens) (P48729 2-337 limits assumed): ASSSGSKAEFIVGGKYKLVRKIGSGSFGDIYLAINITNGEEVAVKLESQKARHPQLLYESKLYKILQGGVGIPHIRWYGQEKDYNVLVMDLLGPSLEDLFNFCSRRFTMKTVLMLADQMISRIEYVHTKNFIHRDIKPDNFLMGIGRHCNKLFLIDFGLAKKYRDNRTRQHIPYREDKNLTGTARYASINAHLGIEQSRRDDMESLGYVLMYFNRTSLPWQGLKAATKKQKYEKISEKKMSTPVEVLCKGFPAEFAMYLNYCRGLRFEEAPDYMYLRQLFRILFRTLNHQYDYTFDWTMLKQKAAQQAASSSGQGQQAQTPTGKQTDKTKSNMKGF

[7] = molecular target: Microtubule-associated serine/threonine-protein kinase 1 (Homo sapiens) (UniProt Q9Y2H9); test: Inhibition of MAST1 Lys2 labeling site in human Huh-7 cell lysate at 1 uM by KiNativ Profiling analysis relative to control
Chain of Microtubule-associated serine/threonine-protein kinase 1 (Homo sapiens) (Q9Y2H9 whole entry, looked up): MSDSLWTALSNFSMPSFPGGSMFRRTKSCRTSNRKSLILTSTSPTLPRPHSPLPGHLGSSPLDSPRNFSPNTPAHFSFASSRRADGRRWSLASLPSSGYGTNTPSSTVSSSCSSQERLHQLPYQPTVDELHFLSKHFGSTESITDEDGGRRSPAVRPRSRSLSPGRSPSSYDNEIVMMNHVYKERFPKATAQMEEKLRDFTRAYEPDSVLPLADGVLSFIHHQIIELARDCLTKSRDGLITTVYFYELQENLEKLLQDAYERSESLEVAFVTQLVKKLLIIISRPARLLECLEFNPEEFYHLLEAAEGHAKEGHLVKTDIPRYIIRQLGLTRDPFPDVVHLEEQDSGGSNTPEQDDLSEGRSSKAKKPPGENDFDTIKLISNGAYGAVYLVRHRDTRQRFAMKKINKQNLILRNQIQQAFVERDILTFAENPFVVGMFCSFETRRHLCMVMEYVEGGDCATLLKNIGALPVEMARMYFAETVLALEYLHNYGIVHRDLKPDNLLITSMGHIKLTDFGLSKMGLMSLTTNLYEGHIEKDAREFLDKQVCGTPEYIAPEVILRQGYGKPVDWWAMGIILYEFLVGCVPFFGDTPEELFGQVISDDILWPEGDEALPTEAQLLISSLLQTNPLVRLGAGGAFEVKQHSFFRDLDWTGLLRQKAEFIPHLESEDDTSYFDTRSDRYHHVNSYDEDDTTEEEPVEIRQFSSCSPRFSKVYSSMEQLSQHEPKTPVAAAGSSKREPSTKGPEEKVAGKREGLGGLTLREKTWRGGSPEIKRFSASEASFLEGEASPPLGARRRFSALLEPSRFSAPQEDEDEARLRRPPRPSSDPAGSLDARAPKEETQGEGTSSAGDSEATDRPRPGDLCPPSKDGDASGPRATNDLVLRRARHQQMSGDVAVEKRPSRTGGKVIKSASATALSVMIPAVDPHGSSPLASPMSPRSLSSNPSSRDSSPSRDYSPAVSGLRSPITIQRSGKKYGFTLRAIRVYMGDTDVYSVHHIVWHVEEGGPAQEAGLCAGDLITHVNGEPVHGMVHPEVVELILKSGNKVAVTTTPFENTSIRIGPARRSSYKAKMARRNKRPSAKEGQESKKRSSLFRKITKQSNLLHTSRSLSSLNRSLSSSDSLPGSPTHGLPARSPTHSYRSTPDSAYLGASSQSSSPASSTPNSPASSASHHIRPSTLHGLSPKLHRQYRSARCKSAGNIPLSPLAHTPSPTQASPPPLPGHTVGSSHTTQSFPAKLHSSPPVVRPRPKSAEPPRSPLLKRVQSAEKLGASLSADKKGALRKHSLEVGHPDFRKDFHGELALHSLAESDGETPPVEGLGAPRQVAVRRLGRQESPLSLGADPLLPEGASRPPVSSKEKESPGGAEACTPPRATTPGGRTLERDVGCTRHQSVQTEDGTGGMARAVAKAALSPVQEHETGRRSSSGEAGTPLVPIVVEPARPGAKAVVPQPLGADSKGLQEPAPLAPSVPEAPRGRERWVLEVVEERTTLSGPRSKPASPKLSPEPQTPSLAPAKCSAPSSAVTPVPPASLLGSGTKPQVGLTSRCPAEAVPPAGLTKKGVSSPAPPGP

[8] = molecular target: T2, Aurora kinase A (Homo sapiens) (UniProt O14965); test: Inhibition of AurA Lys2 labeling site in human A-375 cells at 0.05 uM by KiNativ Profiling analysis relative to control; type: cell-based
T2 sequence (whole entry): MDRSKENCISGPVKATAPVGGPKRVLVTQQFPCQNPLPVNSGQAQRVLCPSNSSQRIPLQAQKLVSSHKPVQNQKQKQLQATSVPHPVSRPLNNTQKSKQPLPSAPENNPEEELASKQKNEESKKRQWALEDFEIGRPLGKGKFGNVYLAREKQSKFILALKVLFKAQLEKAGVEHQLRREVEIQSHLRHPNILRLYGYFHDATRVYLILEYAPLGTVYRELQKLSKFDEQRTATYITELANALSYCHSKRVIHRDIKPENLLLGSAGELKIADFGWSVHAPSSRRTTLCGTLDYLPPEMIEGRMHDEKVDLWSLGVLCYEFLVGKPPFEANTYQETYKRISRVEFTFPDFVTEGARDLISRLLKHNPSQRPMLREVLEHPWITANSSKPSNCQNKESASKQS

SMILES: CCN1CCN(Cc2ccc(NC(=O)c3ccc(C)c(Oc4ccnc5[nH]ccc45)c3)cc2C(F)(F)F)CC1
- inhibition [1]: inactive
- inhibition [2]: -3.2%
- inhibition [3]: 25.3%
- percent of control [4]: 0.75%

SMILES: CNc1cc(Oc2cc(C(=O)Nc3cc(N4CCN(C)CC4)cc(C(F)(F)F)c3)ccc2C)ncn1
- inhibition [5]: 24.3%
- inhibition [6]: -1.9%
- inhibition [7]: 7.2%

SMILES: CCN1CCN(Cc2ccc(NC(=O)c3ccc(C)c(/C=C/c4cnc5[nH]ccc5c4OC)c3)cc2C(F)(F)F)CC1
- inhibition [8]: -9.1%
